Data taken from BindingDB's records for patent US11912668 (Deciphera Pharmaceuticals, 2024).

Key:
[1] = target: T1, Eukaryotic translation initiation factor 2-alpha kinase 3 [563-1115] (Homo sapiens, UniProt Q9NZJ5); assay: Biochemical Assay for PERK
T1 construct: 563-1115
T1 sequence (Q9NZJ5 whole entry): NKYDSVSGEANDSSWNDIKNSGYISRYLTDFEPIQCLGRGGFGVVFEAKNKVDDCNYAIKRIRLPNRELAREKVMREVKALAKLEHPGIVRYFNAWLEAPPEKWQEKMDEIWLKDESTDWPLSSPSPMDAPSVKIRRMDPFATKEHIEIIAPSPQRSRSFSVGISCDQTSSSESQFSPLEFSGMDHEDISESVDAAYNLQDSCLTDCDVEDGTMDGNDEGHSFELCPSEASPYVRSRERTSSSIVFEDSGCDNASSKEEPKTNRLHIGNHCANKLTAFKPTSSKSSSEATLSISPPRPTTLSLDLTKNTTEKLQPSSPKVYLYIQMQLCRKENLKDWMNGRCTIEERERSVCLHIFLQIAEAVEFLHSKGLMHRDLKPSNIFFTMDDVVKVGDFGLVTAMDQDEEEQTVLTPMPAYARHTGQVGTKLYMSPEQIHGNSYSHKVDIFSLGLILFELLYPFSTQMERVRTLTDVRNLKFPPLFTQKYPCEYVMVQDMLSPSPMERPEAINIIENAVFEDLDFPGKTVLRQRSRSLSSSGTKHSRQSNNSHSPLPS
Method: Activity of PERK kinase was determined spectroscopically using a coupled pyruvate kinase/lactate dehydrogenase assay that continuously monitors the ATP hydrolysis-dependent oxidation of NADH (e.g., Schindler et al. Science (2000) 289: 1938-1942). Assays were conducted in 384-well plates (100 μL final volume) using 10 nM PERK (from Beryllium), 0.25 mg/mL Myelin Basic Protein substrate, 1.5 units pyruvate kinase, 2.1 units lactate dehydrogenase, 1 mM phosphoenol pyruvate, 0.28 mM NADH and 1 mM ATP in assay buffer (100 mM Tris, pH 7.5, 15 mM MgCl2, 0.5 mM DTT, 0.004% (w/v) BSA, and 0.004% Triton X-100). Inhibition of PERK was measured by adding serial diluted test compound (final assay concentration of 1% DMSO). A decrease in absorption at 340 nm was monitored continuously for 6 hours at 30° C. on a multi-mode microplate reader (BioTek). The reaction rate was calculated using the 2-3 h time frame. The reaction rate at each concentration of compound was converted to percent inhibition using controls (i.e. reaction with no test compound and reaction with a known inhibitor) and IC50 values were calculated using software routines in Prism (GraphPad software).

[2] = target: eIF-2-alpha kinase GCN2 (Homo sapiens, UniProt Q9P2K8); assay: Biochemical Assay for GCN2
Method: Activity of GCN2 kinase was determined using a TR-FRET kinase activity assay (e.g. Riddle et al. Analytical Biochemistry (2006) 356(1) 108-116). Assays were conducted in 384-well plates (13 μL assay volume) using 2 nM GCN2 (Carna Biosciences), 130 nM GFP-EIf2α (Invitrogen), 0.2 mg/mL E. coli tRNA (sigma) and 1 mM ATP in kinase buffer (Invitrogen). Inhibition of GCN2 was measured by adding serial diluted test compound (final assay concentration of 0.5% DMSO) followed by a 3-hour incubation. Tb-peIF2α (pSer52) antibody (Invitrogen) (2 nM final assay concentration) in kinase buffer containing ETDA (final assay concentration of 20 mM) was added. After a 60 min incubation at room temperature, TR-FRET was monitored using an excitation wavelength of 340 nm and emission wavelengths of 490 nm and 520 nm. The emission ratio (520/490) at each compound concentration of was converted to percent inhibition using controls (i.e. reaction with no test compound and reaction with a known inhibitor) and IC50 values were calculated by fitting a four-parameter sigmoidal curve to the data using Prism (GraphPad software).

eIF-2-alpha kinase GCN2, sequence (Q9P2K8 whole entry): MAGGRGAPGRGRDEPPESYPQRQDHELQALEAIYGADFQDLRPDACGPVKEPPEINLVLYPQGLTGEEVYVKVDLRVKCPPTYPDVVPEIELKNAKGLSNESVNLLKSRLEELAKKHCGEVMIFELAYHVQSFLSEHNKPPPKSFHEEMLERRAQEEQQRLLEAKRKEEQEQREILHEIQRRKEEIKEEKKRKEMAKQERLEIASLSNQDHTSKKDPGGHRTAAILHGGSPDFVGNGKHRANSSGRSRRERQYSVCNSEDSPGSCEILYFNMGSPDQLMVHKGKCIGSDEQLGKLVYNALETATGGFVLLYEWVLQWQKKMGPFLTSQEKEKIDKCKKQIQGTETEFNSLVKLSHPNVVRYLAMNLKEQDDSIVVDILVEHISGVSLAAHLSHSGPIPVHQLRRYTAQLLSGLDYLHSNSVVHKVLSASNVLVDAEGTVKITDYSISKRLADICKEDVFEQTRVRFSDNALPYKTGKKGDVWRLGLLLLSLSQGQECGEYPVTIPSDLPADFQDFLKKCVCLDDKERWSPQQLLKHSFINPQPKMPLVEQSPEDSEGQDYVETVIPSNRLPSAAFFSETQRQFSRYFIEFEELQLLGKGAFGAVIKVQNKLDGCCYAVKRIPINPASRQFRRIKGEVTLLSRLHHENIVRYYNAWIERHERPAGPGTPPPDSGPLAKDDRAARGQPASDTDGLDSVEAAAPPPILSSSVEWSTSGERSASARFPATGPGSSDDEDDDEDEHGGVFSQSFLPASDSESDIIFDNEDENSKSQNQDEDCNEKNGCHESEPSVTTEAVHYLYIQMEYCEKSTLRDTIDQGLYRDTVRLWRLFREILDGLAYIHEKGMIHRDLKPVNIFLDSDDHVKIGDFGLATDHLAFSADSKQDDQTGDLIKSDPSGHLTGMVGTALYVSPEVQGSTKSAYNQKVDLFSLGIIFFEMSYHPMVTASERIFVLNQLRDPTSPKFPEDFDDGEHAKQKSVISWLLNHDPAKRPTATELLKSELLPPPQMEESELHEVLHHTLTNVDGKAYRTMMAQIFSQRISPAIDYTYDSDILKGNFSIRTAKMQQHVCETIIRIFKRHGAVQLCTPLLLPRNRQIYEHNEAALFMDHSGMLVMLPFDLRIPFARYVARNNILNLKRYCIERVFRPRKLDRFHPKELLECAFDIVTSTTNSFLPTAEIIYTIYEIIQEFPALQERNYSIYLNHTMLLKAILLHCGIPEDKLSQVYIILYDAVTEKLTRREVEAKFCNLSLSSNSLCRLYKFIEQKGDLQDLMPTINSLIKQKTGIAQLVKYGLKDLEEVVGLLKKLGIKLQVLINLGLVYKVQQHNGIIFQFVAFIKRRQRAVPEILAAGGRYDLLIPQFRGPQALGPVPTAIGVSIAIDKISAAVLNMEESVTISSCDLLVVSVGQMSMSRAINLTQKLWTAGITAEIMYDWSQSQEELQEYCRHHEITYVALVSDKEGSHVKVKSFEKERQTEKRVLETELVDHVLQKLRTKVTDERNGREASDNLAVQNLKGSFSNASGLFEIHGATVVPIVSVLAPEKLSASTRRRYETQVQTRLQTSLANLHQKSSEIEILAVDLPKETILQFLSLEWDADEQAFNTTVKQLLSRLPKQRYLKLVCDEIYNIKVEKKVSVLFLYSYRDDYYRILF

Compound	IC50 [1]	IC50 [2]
Cc1nc2cc(N)ncc2cc1-c1cccc(NS(=O)(=O)c2cc(Cl)cc(CO)c2Cl)c1F [US11912668, Example 174]	< 100 nM	< 100 nM
CNc1cc2nc(N)c(-c3cccc(NS(=O)(=O)c4cc(Cl)cc(CO)c4Cl)c3F)cc2cn1 [US11912668, Example 171]	< 100 nM	< 100 nM
CNc1ncc2cc(-c3cc(F)cc(NS(=O)(=O)c4cc(Cl)cnc4OC)c3)c(C)nc2n1 [US11912668, Example 65]	–	< 100 nM
